Data taken from PubChem BioAssay AID1919016 (Molecular Pharmacology Branch, DTP, NCI, 2023).
Blank lines part the entries; values can stand above or below the compound they belong to.

System: NCI-H196 complex spheroid growth, percent test/control
Experiment: Anticancer human tumor NCI-H196 cell line growth inhibition [AhR];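 note: seven days of drug exposure starting three days after plating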;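 for viability, T/C: 100% = DMSO vehicle control wells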
Details: for IC50: curve of first compound; for viability, T/C: stronger effect = lower value
From the text: Multicellular complex tumor spheroid response to aryl hydrocarbon receptor antagonists in combination with a variety of drugs and investigational agents in selected tumor cell lines
The current study was undertaken to assess response to aryl hydrocarbon receptor antagonists in combination with standard-of-care drugs and investigational agents in solid tumor complex spheroid models. Complex spheroids include a stromal component modeled by human endothelial cells (HUVEC) and fibroblasts modeled by human mesenchymal stem cells (MSCs). The concentration ranges selected for each drug and investigational agent were based upon clinically achievable concentrations if the clinical Cmax of the agent was known.
Compounds. The drugs and investigational agents: BAY 2416964 (NSC825713), GNF351 (NSC835774), CH-223191 (NSC835775), CPI-455 (NSC825282), aza-TdCyd (NSC777586), decitabine (NSC127716), belinostat (NSC758774), entinostat (NSC756642), pevonedistat (NSC761192), tazemetostat (NSC777109), talazoparib (NSC765396), olaparib (NSC753686), selinexor (NSC780203), nedisertib (M3814, NSC802822), bortezomib (NSC756655), venetoclax (NSC766270), doxorubicin (NSC123127), elimusertib (BAY189344, NSC800525), ceralasertib (AZD6738, NSC777638), TAK-243 (NSC785004), alisertib (NSC759677), etoposide (NSC141540), topotecan (NSC609699), eribulin (NSC707389), gemcitabine (NSC613327), carboplatin (NSC241240), cisplatin (NSC119875), and SN-38 (NSC673596) were obtained from the National Cancer Institute (NCI) Developmental Therapeutics Program Chemical Repository (32). The FDA-approved anticancer drug set is available from the Developmental Therapeutics Program at https://dtp.cancer.gov/organization/dscb/obtaining/available plates.htm. […] The stock solutions were prepared in dimethyl sulfoxide (DMSO, Sigma-Aldrich, St. Louis, MO, cat. D2650), except for the platinum compounds which were prepared in saline (Quality Biological, Gaithersburg, MD, cat. 114-055-101), at 800-fold the tested concentration and stored at -70 degrees C prior to their use. All drugs and investigational agents were tested over a range starting from a high concentration at or near the clinical Cmax and decreasing in half-log increments. If the clinical Cmax for an agent had not been determined, the highest concentration tested was 10 microM (Table 1).
Cell Culture. All cells were maintained in an incubator at 37 degrees C and 5% CO2 with 95% humidity. The PDC lines were cultured according to standard operating procedures established by the NCI PDMR (https://pdmr.cancer.gov). Briefly, all PDCs were thawed and cultured in Matrigel-coated flasks prepared with a working solution of 1X Ham's F-12 nutrient mix, without supplementation (Invitrogen, Waltham, MA, cat. 11765054), 100 U/mL penicillin-streptomycin (Invitrogen, cat. 15140122), and 2.5% Matrigel (Corning Inc., Corning, NY, cat. 354248) for the first three passages. All PDCs were cultured in complete DMEM/F-12 media containing advanced DMEM/F-12 (Invitrogen, cat. 12634028), 4.9% defined fetal bovine serum, heat inactivated (HyClone Laboratories Inc., Logan, UT, cat. SH30070.03HI), 389 ng/mL hydrocortisone (Sigma-Aldrich, cat. H4001), 9.7 ng/mL human EGF recombinant protein (Invitrogen, cat. PHG0313), 23.4 microg/mL adenine (Sigma-Aldrich, cat. A2786), 97.3 U/mL penicillin-streptomycin (Invitrogen, cat. 15140122), 1.9 mM L-glutamine (Invitrogen, cat. 25030081), and 9.7 microM Y-27632 dihydrochloride (Tocris Bioscience, Bristol, United Kingdom, cat. 1254). The PDCs were cultured in complete DMEM/F12 media without 10 microM Y-27632 dihydrochloride for at least two passages prior to the screen. The established cell lines NCI-H1341 and […] were cultured in DMEM/F-12, HEPES (Invitrogen, cat. 11330032), 5% defined fetal bovine serum (HyClone Laboratories Inc., cat. SH30070.03), ITS premix universal culture supplement [insulin (5 microg/mL), transferrin (5 microg/mL), and selenious acid (5 ng/mL)] […]

[1] = second compound 0.1 µM, first compound 0.0316 µM
[2] = second compound 0.1 µM, first compound 0.1 µM
[3] = second compound 0.1 µM, first compound 0.316 µM
[4] = second compound 0.1 µM, first compound 1 µM
[5] = second compound 0.1 µM, first compound 3.16 µM
[6] = second compound 0.1 µM, first compound 10 µM
[7] = second compound 0.316 µM, first compound 0.0316 µM
[8] = second compound 0.316 µM, first compound 0.1 µM
[9] = second compound 0.316 µM, first compound 0.316 µM
[10] = second compound 0.316 µM, first compound 1 µM
[11] = second compound 0.316 µM, first compound 3.16 µM
[12] = second compound 0.316 µM, first compound 10 µM
[13] = second compound 1 µM, first compound 0.0316 µM
[14] = second compound 1 µM, first compound 0.1 µM
[15] = second compound 1 µM, first compound 0.316 µM
[16] = second compound 1 µM, first compound 1 µM
[17] = second compound 1 µM, first compound 3.16 µM
[18] = second compound 1 µM, first compound 10 µM
[19] = second compound 3.16 µM, first compound 0.0316 µM
[20] = second compound 3.16 µM, first compound 0.1 µM
[21] = second compound 3.16 µM, first compound 0.316 µM
[22] = second compound 3.16 µM, first compound 1 µM
[23] = second compound 3.16 µM, first compound 3.16 µM
[24] = second compound 3.16 µM, first compound 10 µM
[25] = second compound 10 µM, first compound 0.0316 µM
[26] = second compound 10 µM, first compound 0.1 µM
[27] = second compound 10 µM, first compound 0.316 µM
[28] = second compound 10 µM, first compound 1 µM
[29] = second compound 10 µM, first compound 3.16 µM
[30] = second compound 10 µM, first compound 10 µM

IC50 (second compound 0.1 µM): 7.64 nM
IC50 (second compound 0.316 µM): 8.07 nM
IC50 (second compound 1 µM): 8.7 nM
IC50 (second compound 3.16 µM): 10.6 nM
IC50 (second compound 10 µM): 8.75 nM
Compound: CC(C)CC(NC(=O)C(Cc1ccccc1)NC(=O)c1cnccn1)B(O)O (stereo not given) + CC(CO)NC(=O)c1cc(-c2ccc(Cl)cc2)nn(-c2cnn(C)c2)c1=O
viability, T/C (second compound 0.1 µM, first compound 0.000949 µM): 108%
viability, T/C (second compound 0.1 µM, first compound 0.003 µM): 106%
viability, T/C (second compound 0.1 µM, first compound 0.00949 µM): 37%
viability, T/C (second compound 0.1 µM, first compound 0.03 µM): 3.54%
viability, T/C (second compound 0.1 µM, first compound 0.0949 µM): 2.43%
viability, T/C (second compound 0.1 µM, first compound 0.3 µM): 2.49%
viability, T/C (second compound 0.316 µM, first compound 0.000949 µM): 106%
viability, T/C (second compound 0.316 µM, first compound 0.003 µM): 101%
viability, T/C (second compound 0.316 µM, first compound 0.00949 µM): 41.8%
viability, T/C (second compound 0.316 µM, first compound 0.03 µM): 2.17%
viability, T/C (second compound 0.316 µM, first compound 0.0949 µM): 2.62%
viability, T/C (second compound 0.316 µM, first compound 0.3 µM): 1.45%
viability, T/C (second compound 1 µM, first compound 0.000949 µM): 109%
viability, T/C (second compound 1 µM, first compound 0.003 µM): 103%
viability, T/C (second compound 1 µM, first compound 0.00949 µM): 45.8%
viability, T/C (second compound 1 µM, first compound 0.03 µM): 3.07%
viability, T/C (second compound 1 µM, first compound 0.0949 µM): 1.88%
viability, T/C (second compound 1 µM, first compound 0.3 µM): 2.1%
viability, T/C (second compound 3.16 µM, first compound 0.000949 µM): 118%
viability, T/C (second compound 3.16 µM, first compound 0.003 µM): 113%
viability, T/C (second compound 3.16 µM, first compound 0.00949 µM): 54.9%
viability, T/C (second compound 3.16 µM, first compound 0.03 µM): 3.25%
viability, T/C (second compound 3.16 µM, first compound 0.0949 µM): 1.7%
viability, T/C (second compound 3.16 µM, first compound 0.3 µM): 1.74%
viability, T/C (second compound 10 µM, first compound 0.000949 µM): 112%
viability, T/C (second compound 10 µM, first compound 0.003 µM): 116%
viability, T/C (second compound 10 µM, first compound 0.00949 µM): 45.1%
viability, T/C (second compound 10 µM, first compound 0.03 µM): 2.87%
viability, T/C (second compound 10 µM, first compound 0.0949 µM): 2.23%
viability, T/C (second compound 10 µM, first compound 0.3 µM): 2.03%

IC50 (second compound 0.1 µM): 509 nM
IC50 (second compound 0.316 µM): 519 nM
IC50 (second compound 1 µM): 523 nM
IC50 (second compound 3.16 µM): 596 nM
IC50 (second compound 10 µM): 593 nM
Compound: Nc1ccccc1NC(=O)c1ccc(CNC(=O)OCc2cccnc2)cc1 + CC(CO)NC(=O)c1cc(-c2ccc(Cl)cc2)nn(-c2cnn(C)c2)c1=O
viability, T/C [1]: 80.5%
viability, T/C [2]: 81.1%
viability, T/C [3]: 62.6%
viability, T/C [4]: 29.9%
viability, T/C [5]: 15.4%
viability, T/C [6]: 0.46%
viability, T/C [7]: 87.5%
viability, T/C [8]: 81.5%
viability, T/C [9]: 61.6%
viability, T/C [10]: 33.7%
viability, T/C [11]: 12.8%
viability, T/C [12]: 0.5%
viability, T/C [13]: 87.9%
viability, T/C [14]: 79.3%
viability, T/C [15]: 63.2%
viability, T/C [16]: 32.9%
viability, T/C [17]: 14.5%
viability, T/C [18]: 0.63%
viability, T/C [19]: 85.6%
viability, T/C [20]: 89.4%
viability, T/C [21]: 65.3%
viability, T/C [22]: 34.7%
viability, T/C [23]: 15.3%
viability, T/C [24]: 0.42%
viability, T/C [25]: 91.7%
viability, T/C [26]: 87.5%
viability, T/C [27]: 74.1%
viability, T/C [28]: 29.2%
viability, T/C [29]: 12.9%
viability, T/C [30]: 0.86%

IC50 (second compound 0.1 µM): 1630 nM
IC50 (second compound 0.316 µM): 1770 nM
IC50 (second compound 1 µM): 2020 nM
IC50 (second compound 3.16 µM): 1750 nM
IC50 (second compound 10 µM): 1810 nM
Compound: O=C(C=Cc1cccc(S(=O)(=O)Nc2ccccc2)c1)NO + CC(CO)NC(=O)c1cc(-c2ccc(Cl)cc2)nn(-c2cnn(C)c2)c1=O
viability, T/C [1]: 107%
viability, T/C [2]: 92.2%
viability, T/C [3]: 91.3%
viability, T/C [4]: 72.2%
viability, T/C [5]: 21.6%
viability, T/C [6]: 1.02%
viability, T/C [7]: 109%
viability, T/C [8]: 98.1%
viability, T/C [9]: 98.9%
viability, T/C [10]: 71.2%
viability, T/C [11]: 28%
viability, T/C [12]: 0.59%
viability, T/C [13]: 101%
viability, T/C [14]: 99.5%
viability, T/C [15]: 102%
viability, T/C [16]: 83.7%
viability, T/C [17]: 28.5%
viability, T/C [18]: 0.5%
viability, T/C [19]: 108%
viability, T/C [20]: 109%
viability, T/C [21]: 102%
viability, T/C [22]: 74.1%
viability, T/C [23]: 24.3%
viability, T/C [24]: 0.54%
viability, T/C [25]: 119%
viability, T/C [26]: 106%
viability, T/C [27]: 99.9%
viability, T/C [28]: 75.1%
viability, T/C [29]: 26.9%
viability, T/C [30]: 0.56%
